Laboratory results reported in ChEMBL document CHEMBL1201862, “PubChem BioAssay data set” (2004).
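Cells were grown in 96-well plates and exposed to each compound for 48 hours at five concentrations; endpoints were interpolated linearly between bracketing concentrations, or set to the highest concentration if not reached. The concentration for 50% growth inhibition is given as GI50.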 The source made the active and inactive calls. Rule as the data show it: active = GI50 up to about 1.1 µM and inactive = higher.

Legend:
Experiment in all cases: DTP human tumour cell line panel, 48 h
786-0 = tested on: 786-0
ACHN = tested on: ACHN
DMS-114 = tested on: DMS-114
HOP-62 = tested on: HOP-62
IGROV-1 = tested on: IGROV-1
MCF7 = tested on: MCF7
MDA-MB-435 = tested on: MDA-MB-435
NCI-H23 = tested on: NCI-H23
OVCAR-3 = tested on: OVCAR-3
OVCAR-4 = tested on: OVCAR-4
PC-3 = tested on: PC-3
RPMI-8226 = tested on: RPMI-8226
RXF 393 = tested on: RXF 393
SF-268 = tested on: SF-268
SK-MEL-28 = tested on: SK-MEL-28
SK-MEL-5 = tested on: SK-MEL-5
CAKI-1 = tested on: CAKI-1
HL-60 = tested on: HL-60
HOP-92 = tested on: HOP-92
UACC-257 = tested on: UACC-257

Measured: GI50

CC(=O)O.CN1CCN(CN2C(=O)C3C4C=CC(C3C2=O)C2C3C(=O)N(CN5CCN(C)CC5)C(=O)C3C42)CC1 (configuration not stated)
inactive: 786-0 19.9 µM | ACHN 27.6 µM | DMS-114 20.1 µM | HOP-62 > 50 µM | IGROV-1 35.5 µM | MCF7 32.3 µM | MDA-MB-435 17.1 µM | NCI-H23 20.7 µM | OVCAR-3 24.3 µM | OVCAR-4 21.4 µM | PC-3 33.7 µM | RPMI-8226 22.2 µM | RXF 393 17.7 µM | SF-268 27.5 µM | SK-MEL-28 28 µM | SK-MEL-5 23.4 µM

Cc1ccc(C(=O)/C=C/c2ccccc2O)c(C)c1
inactive: 786-0 > 100 µM | ACHN > 100 µM | CAKI-1 > 100 µM | DMS-114 > 100 µM | HL-60 > 100 µM | HOP-62 > 100 µM | HOP-92 > 100 µM | IGROV-1 > 100 µM | NCI-H23 > 100 µM | OVCAR-3 > 100 µM | OVCAR-4 > 100 µM | RPMI-8226 18.7 µM | RXF 393 > 100 µM | SF-268 93.3 µM | SK-MEL-28 > 100 µM | SK-MEL-5 > 100 µM | UACC-257 > 100 µM

c1ccc2c(c1)[Se]c1ccccc1[Se]2
inactive: 786-0 > 100 µM | ACHN > 100 µM | CAKI-1 67.1 µM | DMS-114 67 µM | HL-60 27.1 µM | HOP-62 > 100 µM | HOP-92 25.8 µM | IGROV-1 47.6 µM | NCI-H23 63.5 µM | OVCAR-3 > 100 µM | OVCAR-4 23.4 µM | RPMI-8226 > 100 µM | RXF 393 61.8 µM | SF-268 > 100 µM | SK-MEL-28 > 100 µM | SK-MEL-5 > 100 µM | UACC-257 > 100 µM

Cc1ccc(S(=O)(=O)OC2CC=CC2)cc1
inactive: 786-0 > 100 µM | ACHN > 100 µM | CAKI-1 > 100 µM | DMS-114 > 100 µM | HL-60 > 100 µM | HOP-62 > 100 µM | HOP-92 > 100 µM | IGROV-1 > 100 µM | OVCAR-3 > 100 µM | OVCAR-4 > 100 µM | RPMI-8226 > 100 µM | RXF 393 > 100 µM | SK-MEL-28 > 100 µM | SK-MEL-5 > 100 µM | UACC-257 > 100 µM

CCOC(=O)C(C)(NC(=O)c1ccc(NCc2ccc3nc(NC(=O)c4ccccc4)nc(NC(=O)c4ccccc4)c3c2)cc1)C(=O)OCC
inactive: 786-0 3.19 µM | ACHN 8.17 µM | CAKI-1 8.02 µM | DMS-114 16.8 µM | HL-60 > 100 µM | HOP-62 16.6 µM | HOP-92 5.62 µM | IGROV-1 19.9 µM | NCI-H23 9.86 µM | OVCAR-3 5.64 µM | OVCAR-4 2.09 µM | RPMI-8226 18.3 µM | RXF 393 2.39 µM | SF-268 8.99 µM | SK-MEL-28 8.18 µM | SK-MEL-5 7.28 µM | UACC-257 13.5 µM

CC(C)c1cc2c(O)c(c1)Cc1cc(C(C)C)cc(c1O)Cc1cc(C(C)C)cc(c1O)Cc1cc(C(C)C)cc(c1O)C2
inactive: 786-0 > 100 µM | CAKI-1 > 100 µM | DMS-114 > 100 µM | HL-60 > 100 µM | HOP-62 > 100 µM | HOP-92 > 100 µM | IGROV-1 > 100 µM | NCI-H23 > 100 µM | OVCAR-3 > 100 µM | OVCAR-4 > 100 µM | RPMI-8226 > 100 µM | RXF 393 > 100 µM | SF-268 > 100 µM | SK-MEL-5 > 100 µM | UACC-257 > 100 µM
